The values that follow come from patent US5658898A, “Intravenous solutions for a derivative of staurosporine” (CIBA GEIGY Corporation, priority 1994, dated 1997).

One data set can be described thus: water solubility. The class given is physicochemical. The settings on record: room temperature.
The conditions of data set [1]: cited from earlier work.

What is called solubility is the concentration that dissolves in the medium under given conditions. Low readings indicate little dissolved substance, high ones much dissolved substance.

Take `CO[C@@H]1[C@H](N(C)C(=O)c2ccccc2)C[C@H]2O[C@]1(C)n1c3ccccc3c3c4c(c5c6ccccc6n2c5c31)C(=O)NC4` [N-benzoyl-staurosporin]: the solubility in the data set “water solubility” is less than 0.1 µg/mL. Regarding `CN[C@@H]1C[C@H]2O[C@@](C)([C@@H]1OC)n1c3ccccc3c3c4c(c5c6ccccc6n2c5c31)C(=O)NC4` [staurosporin], in data set [1], the “water-solubility (in words)” value is “low water-solubility”.
